{"source": "paper PMC7546441", "about": "(Nature chemical biology, 2019)", "key": {"[1]": {"target": "Bs GDH (Bacillus subtilis, UniProt P12310)", "sequence (P12310 whole entry)": "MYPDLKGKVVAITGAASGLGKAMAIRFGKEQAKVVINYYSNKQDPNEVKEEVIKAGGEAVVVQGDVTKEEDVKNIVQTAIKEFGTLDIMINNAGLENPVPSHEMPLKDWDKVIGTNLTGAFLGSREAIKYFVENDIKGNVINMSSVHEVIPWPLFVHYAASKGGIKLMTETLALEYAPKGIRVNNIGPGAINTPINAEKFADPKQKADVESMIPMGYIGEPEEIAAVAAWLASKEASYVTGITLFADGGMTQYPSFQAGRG", "assay": "full steady-state kinetics, ordered bi-bi fit, […] nm", "type": "biochemical", "details": "cofactor and glucose varied, 35 mM Tris-HCl pH 8.0, 25 °C"}, "[2]": {"target": "XenA (Pseudomonas putida, UniProt Q9R9V9)", "assay": "initial rate, absorbance at […] nm", "type": "biochemical", "details": "0.2 mM NMNH, 5 mM ketoisophorone, 200 mM phosphate pH 7.5, 37 °C"}}, "data": [{"smiles": "OC[C@H]1OC(O)[C@H](O)[C@@H](O)[C@@H]1O", "note": "(stereo partly drawn) [D-glucose]", "values": [{"measurement": "KB", "setting": "[1]", "value": "KA and KB are Michaelis constants for cofactor and substrate, respectively"}]}, {"smiles": "NC(=O)C1=CN([C@@H]2O[C@H](COP(=O)(O)O)[C@@H](O)[C@H]2O)C=CC1", "note": "[NMNH]", "values": [{"measurement": "initial rate, absorbance at 340 nm", "setting": "[2]", "value": "reduced NMN^+ (NMNH) was also well accepted by XenA"}]}]}
